Experimental data published in patent publication US6569850B1, “Treatment of multiple sclerosis (MS) and other demyelinating conditions using lofepramine in combination with L-phenylalanine, tyrosine or tyrptophan and possibly a vitamin B12 compound” (priority 1994, dated 2003).
“Also recorded” adds a separate entry of the source.

Experiment: Treatment of patients with Multiple Sclerosis (case histories and patient series)
Type: in vivo, human
Details: for Contribution of the component to the therapeutic effect in MS: added to the antidepressant regime
Description: Over 100 other patients have done well on a similar regime, although some have been given other antidepressants either of the traditional tricyclic class, such as amitriptyline or imipramine, or the newer specialist serotonin uptake inhibitors or monoamine oxidase inhibitors. Four particular instances are given in the appendix. […] The doses of LPA have also varied from about 100 mg to up to 5 g per day, but best results are obtained with doses in the region of 500-2000 mg/day. The doses of antidepressants (with the proviso that minimum effective and maximum safe levels are determined according to the drug), lie broadly in the range 10 mg to 200 mg per day.
A specific example of the use of the treatment is 70 mgs (half the therapeutic starting dose for depression) of lofepramine taken each morning with 500 mgs of L-phenylalanine, and 500 mgs of L-phenylalanine taken mid afternoon. For patients with the regular MS attacks of chronic progressive MS it is desirable to include an 8-10 week course of 1000 micrograms of hydroxocobalamin (intra muscular) per week at the start of treatment and then 1000 micrograms every ten days thereafter.

Molecule | Contribution of the component to the therapeutic effect in MS | Comparative therapeutic result among antidepressants in MS treatment (antidepressant combined with neurotransmitter precursor)
N[C@@H](Cc1ccccc1)C(=O)O [L-phenylalanine (LPA), L-phenylalanine] | contributes to the therapeutic effect | 
CN(CCCN1c2ccccc2CCc2ccccc21)CC(=O)c1ccc(Cl)cc1 [lofepramine] |  | best results; also recorded: Most have done best
vitamin B12 | does have a beneficial effect; also recorded: the treatment works best | 
